Reference: patent US20020137929A1, “1 - (3-heterocyclylphenyl) isothiourea, -isourea, -guanidine and -amidine herbicidal agents” (Intellectual Property Department, BASF Aktiengesellschaft, priority 1998, published 2002)

How the values were obtained:
ORYSAT (Rice, Tebonnet) = assay: Preemergence herbicidal evaluation; type: in vivo, Oryza sativa, (L.) Tebonnet; details: rated 4-5 weeks after treatment; for ORYSAT rating: preemergence, 0-9 scale
Procedure, shortened: (§1)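 Seeds were mixed with potting soil and planted on about one inch of soil, then sprayed with test compound in aqueous acetone at about 0.0156 to 0.500 kg per hectare. Plants grew under standard greenhouse care and were visually rated 0-9 against untreated controls 4-5 weeks post-treatment.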

CASOB (Sicklepod) = assay: Postemergence herbicidal evaluation; type: in vivo, Cassia obtusifolia; details: postemergence
Procedure, shortened: (§2)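 Herbicidal effect was judged by eye on a 0–9 scale covering stand, vigor, deformity, size and chlorosis, compared with controls, four to five weeks after seedlings about two weeks old were sprayed (40 psi, ~0.0156–0.500 kg/ha).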

[1] = system: TRZAWR (Wheat, Winter, cv Riband); assay: Postemergence herbicidal evaluation; type: in vivo, Triticum aestivum; details: postemergence
Procedure, shortened: as §2

[2] = system: CHEAL (Lambsquarters, Common); assay: Preemergence herbicidal evaluation; type: in vivo, Chenopodium album; details: rated 4-5 weeks after treatment; for CHEAL rating: preemergence, 0-9 scale
Procedure, shortened: as §1

[3] = system: CHEAL (Lambsquarters, Common); assay: Postemergence herbicidal evaluation; type: in vivo, Chenopodium album; details: postemergence
Procedure, shortened: as §2

[4] = rate 0.0156 kg/ha, rating scale 0-9
[5] = rate 0.0313 kg/ha, rating scale 0-9
[6] = rate 0.0625 kg/ha, rating scale 0-9
[7] = rate 0.1250 kg/ha, rating scale 0-9
[8] = rate 0.2500 kg/ha, rating scale 0-9

| SMILES | herbicidal rating CASOB (CASOB (Sicklepod); rate 0.0156 kg/ha) | herbicidal rating CASOB (CASOB (Sicklepod); rate 0.0313 kg/ha) | herbicidal rating CASOB (CASOB (Sicklepod); rate 0.0625 kg/ha) | herbicidal rating TRZAWR ([1]; rate 0.0156 kg/ha) | herbicidal rating TRZAWR ([1]; rate 0.0313 kg/ha) | herbicidal rating TRZAWR ([1]; rate 0.0625 kg/ha) | herbicidal rating CHEAL ([3]; rate 0.0156 kg/ha) | herbicidal rating CHEAL ([3]; rate 0.0313 kg/ha) | herbicidal rating CHEAL ([3]; rate 0.0625 kg/ha) | Preemergence herbicidal rating ORYSAT (ORYSAT (Rice, Tebonnet); rate 0.0156 kg/ha) | Preemergence herbicidal rating ORYSAT (ORYSAT (Rice, Tebonnet); rate 0.0313 kg/ha) | Preemergence herbicidal rating ORYSAT (ORYSAT (Rice, Tebonnet); rate 0.0625 kg/ha) | Preemergence herbicidal rating ORYSAT (ORYSAT (Rice, Tebonnet); rate 0.1250 kg/ha) | Preemergence herbicidal rating ORYSAT (ORYSAT (Rice, Tebonnet); rate 0.2500 kg/ha) | Preemergence herbicidal rating ORYSAT (ORYSAT (Rice, Tebonnet); rate 0.5000 kg/ha) | Preemergence herbicidal rating CHEAL ([2]; rate 0.0313 kg/ha) | Preemergence herbicidal rating CHEAL ([2]; rate 0.0625 kg/ha) | Preemergence herbicidal rating CHEAL ([2]; rate 0.1250 kg/ha) | Preemergence herbicidal rating CHEAL ([2]; rate 0.2500 kg/ha) | Preemergence herbicidal rating CHEAL ([2]; rate 0.5000 kg/ha) | also measured |
| --- | --- | --- | --- | --- | --- | --- | --- | --- | --- | --- | --- | --- | --- | --- | --- | --- | --- | --- | --- | --- | --- |
| CN1C(=O)C(CC(=O)NO)SC1=Nc1cc(-n2c(=O)cc(C(F)(F)F)n(C)c2=O)c(F)cc1Cl (stereo not shown) [Compound 162, 2-{{2-Chloro-5-[3,6-dihydro-3-methyl-2,6-dioxo-4-(trifluoromethyl)-1(2H)-pyrimidinyl]-4-fluorophenyl}imino}-3-methyl-4-oxo-5-thiazolidineacetohydroxamic acid] | 0.0 | 0.0 | 2.0 | 3.5 | 3.5 | 3.5 | 9.0 | 9.0 | 9.0 |  |  |  |  |  |  |  |  |  |  |  | Preemergence herbicidal rating ORYSAT (ORYSAT (Rice, Tebonnet); 0.0156 kg/ha): 2.0; Preemergence herbicidal rating ORYSAT (ORYSAT (Rice, Tebonnet); 0.0313 kg/ha): 3.0; Preemergence herbicidal rating ORYSAT (ORYSAT (Rice, Tebonnet); 0.0625 kg/ha): 5.0; Preemergence herbicidal rating ORYSAT (ORYSAT (Rice, Tebonnet); 0.1250 kg/ha): 6.0; Preemergence herbicidal rating ORYSAT (ORYSAT (Rice, Tebonnet); 0.2500 kg/ha): 8.0; Preemergence herbicidal rating CHEAL ([2]; 0.0156 kg/ha): 9.0; Preemergence herbicidal rating CHEAL ([2]; 0.0313 kg/ha): 9.0; Preemergence herbicidal rating CHEAL ([2]; 0.0625 kg/ha): 9.0; Preemergence herbicidal rating CHEAL ([2]; 0.1250 kg/ha): 9.0; Preemergence herbicidal rating CHEAL ([2]; 0.2500 kg/ha): 9.0 |
| Cn1c(C(F)(F)F)cc(=O)n(-c2cc(N=C3SCC(=O)N3CC(=O)OCC3CC3)c(Cl)cc2F)c1=O [Compound 124, Cyclopropylmethyl 2-{{2-chloro-5-[3,6-dihydro-3-methyl-2,6-dioxo-4-(trifluoromethyl)-1(2H)-pyrimidinyl]-4-fluorophenyl}imino}-4-oxo-3-thiazolidineacetate] | 2.0 | 2.0 | 3.0 | 3.7 | 4.3 | 5.0 | 9.0 | 9.0 | 9.0 | 0.0 | 0.0 | 0.0 | 0.0 | 0.0 | 2.0 | 9.0 | 9.0 | 9.0 | 9.0 | 9.0 | Preemergence herbicidal rating CHEAL ([2]; rate 0.0156 kg/ha): 9.0 |
| Cc1ccc(CN2C(=O)CSC2=Nc2cc(-n3c(=O)cc(C(F)(F)F)n(C)c3=O)c(F)cc2Cl)cc1C [Compound 147, 3-{4-Chloro-5-{[3-(3,4-dimethylbenzyl)-4-oxo-2-thiazolidinylidene]amino}-2-fluorophenyl}-1-methyl-6-(trifluoromethyl)-2,4(1H,3H)-pyrimidinedione] | 1.0 | 1.0 | 2.0 | 2.5 | 3.5 | 4.0 | 5.0 | 6.0 | 9.0 |  |  |  |  |  |  |  |  |  |  |  | Preemergence herbicidal rating ORYSAT (ORYSAT (Rice, Tebonnet); [4]): 0.0; Preemergence herbicidal rating ORYSAT (ORYSAT (Rice, Tebonnet); [5]): 0.0; Preemergence herbicidal rating ORYSAT (ORYSAT (Rice, Tebonnet); [6]): 0.0; Preemergence herbicidal rating ORYSAT (ORYSAT (Rice, Tebonnet); [7]): 0.0; Preemergence herbicidal rating ORYSAT (ORYSAT (Rice, Tebonnet); [8]): 0.0; Preemergence herbicidal rating CHEAL [2, 4]: 0.0; Preemergence herbicidal rating CHEAL [2, 5]: 0.0; Preemergence herbicidal rating CHEAL [2, 6]: 6.0; Preemergence herbicidal rating CHEAL [2, 7]: 9.0; Preemergence herbicidal rating CHEAL [2, 8]: 9.0 |
| CCCCOC(=O)CN1C(=O)CSC1=Nc1cc(-n2c(=O)cc(C(F)(F)F)n(C)c2=O)c(F)cc1Cl [Compound 111] |  |  |  |  |  |  |  |  |  | 0.0 | 0.0 | 0.0 | 1.0 | 5.0 |  | 0.0 | 9.0 | 9.0 | 9.0 |  | herbicidal rating CASOB (CASOB (Sicklepod); rate 0.0158 kg/ha): 0.0; herbicidal rating CASOB (CASOB (Sicklepod); rate 0.0315 kg/ha): 1.0; herbicidal rating CASOB (CASOB (Sicklepod); rate 0.0630 kg/ha): 1.0; herbicidal rating TRZAWR ([1]; rate 0.0158 kg/ha): 2.5; herbicidal rating TRZAWR ([1]; rate 0.0315 kg/ha): 4.5; herbicidal rating TRZAWR ([1]; rate 0.0630 kg/ha): 5.5; herbicidal rating CHEAL ([3]; rate 0.0158 kg/ha): 2.0; herbicidal rating CHEAL ([3]; rate 0.0315 kg/ha): 6.0; herbicidal rating CHEAL ([3]; rate 0.0630 kg/ha): 7.0 |
| CCOC(=O)CN1C(=O)C(CC(=O)OCCF)SC1=Nc1cc(-n2c(=O)cc(C(F)(F)F)n(C)c2=O)c(F)cc1Cl (stereo not shown) [Compound 82, 2-{{2-Chloro-5-[3,6-dihydro-3-methyl-2,6-dioxo-4-(trifluoromethyl)-1(2H)-pyrimidinyl]-4-fluoro-phenyl}imino}-4-oxo-3,5-thiazolidinediacetic acid, 3-ethyl 2-fluoroethyl ester] |  |  |  |  |  |  |  |  |  |  |  |  |  |  |  |  |  |  |  |  | ORYSAT rating (ORYSAT (Rice, Tebonnet); 0.0156 kg/ha): 0.0; ORYSAT rating (ORYSAT (Rice, Tebonnet); 0.0313 kg/ha): 0.0; ORYSAT rating (ORYSAT (Rice, Tebonnet); 0.0625 kg/ha): 0.0; ORYSAT rating (ORYSAT (Rice, Tebonnet); 0.1250 kg/ha): 0.0; ORYSAT rating (ORYSAT (Rice, Tebonnet); 0.2500 kg/ha): 0.0; CASOB herbicidal rating (CASOB (Sicklepod); rate 0.0158 kg/ha): 9.0; CASOB herbicidal rating (CASOB (Sicklepod); rate 0.0315 kg/ha): 9.0; CASOB herbicidal rating (CASOB (Sicklepod); rate 0.0630 kg/ha): 9.0; TRZAWR herbicidal rating ([1]; rate 0.0158 kg/ha): 7.5; TRZAWR herbicidal rating ([1]; rate 0.0315 kg/ha): 7.5; TRZAWR herbicidal rating ([1]; rate 0.0630 kg/ha): 8.5; CHEAL rating ([2]; 0.0156 kg/ha): 9.0; CHEAL rating ([2]; 0.0313 kg/ha): 9.0; CHEAL rating ([2]; 0.0625 kg/ha): 9.0; CHEAL rating ([2]; 0.1250 kg/ha): 9.0; CHEAL rating ([2]; 0.2500 kg/ha): 9.0; CHEAL herbicidal rating ([3]; rate 0.0158 kg/ha): 7.0; CHEAL herbicidal rating ([3]; rate 0.0315 kg/ha): 9.0; CHEAL herbicidal rating ([3]; rate 0.0630 kg/ha): 9.0 |
| CCOC(=O)CN1C(=O)C(C(=O)OCC)SC1=Nc1cc(-n2c(=O)cc(C(F)(F)F)n(C)c2=O)c(F)cc1Cl (stereo not shown) [Compound 127, 5-Carboxy-2-{{2-chloro-5-[3,6-dihydro-3-methyl-2,6-dioxo-4-(trifluoromethyl)-1(2H)-pyrimidinyl]-4-fluorophenyl}imino}-4-oxo-3-thiazolidineacetic acid, diethyl ester] | 0.0 | 0.0 | 1.0 | 2.5 | 2.5 | 3.5 | 4.0 | 4.0 | 9.0 |  | 0.0 | 0.0 | 0.0 | 0.0 | 3.0 | 9.0 | 9.0 | 9.0 | 9.0 | 9.0 | herbicidal rating CASOB (CASOB (Sicklepod); rate 0.1250 kg/ha): 1.0; herbicidal rating TRZAWR ([1]; rate 0.1250 kg/ha): 6.0; herbicidal rating CHEAL ([3]; rate 0.1250 kg/ha): 9.0 |
